Results published in paper PMC9661473.
Where a SMILES comes first, the peptide text is derived from it.

What was measured:
[1] = tested on: 2N3M (DNA, aptamer) TGGTGGTGGTTGTTGTGGTGGTGGTGGT; assay: microscale thermophoresis; details: 100 mM KCl; 25 mM potassium phosphate, pH 7.05, 25 °C, 200 nM aptamer
[2] = tested on: DNA TA (DNA, aptamer) GGTTGGTGTGGTTGG; assay: microscale thermophoresis; details: 100 mM KCl; 25 mM PBS, pH 7.05, 25 °C, 200 nM aptamer
[3] = tested on: DNA TA (DNA, aptamer) GGTTGGTGTGGTTGG; assay: microscale thermophoresis, Hill fit; details: 100 mM KCl; 25 mM PBS, pH 7.05, 25 °C, 200 nM aptamer
[4] = tested on: DNA TA (unlabeled, NMR) (DNA, aptamer) GGTTGGTGTGGTTGG; assay: 1H 1D and 2D NOESY NMR; details: 100 mM KCl; 25 mM potassium phosphate, pH 7.4, 298 K, 10% D2O, 500 μM DNA, 2 equiv YER
[5] = tested on: RNA TA (RNA, aptamer) GGUUGGUGUGGUUGG; assay: microscale thermophoresis, Hill fit; details: 100 mM KCl; 25 mM PBS, pH 7.05, 40 °C, 200 nM aptamer
[6] = tested on: 2N3M (DNA, aptamer) TGGTGGTGGTTGTTGTGGTGGTGGTGGT; assay: microscale thermophoresis, Hill fit; details: 100 mM KCl; 25 mM potassium phosphate, pH 7.05, 25 °C, 200 nM aptamer
[7] = molecular target: T1, RYE tripeptide (thrombin loop fragment) (UniProt P00734 433-435); assay: MST; 100 mM KCl, 25 C; MST: 200 nM FAM-oligo; 25 mM PBS pH 7.05, 100 mM KCl (DNA TA 25 C, RNA TA 40 C) or 25 mM K-phosphate pH 7.05, 100 mM KCl (2N3M, 25 C), Hill fit; NMR: 500 uM DNA TA, 25 mM K-phosphate pH 7.4, 100 mM KCl, 10% D2O, 298 K; details: label: 5'-FAM; intramolecular G-quadruplex
T1 chain: RYE

YE dipeptide = molecular target: T2, YE dipeptide (UniProt P00734 434-435); assay: as above; details: label: 5'-FAM; intramolecular G-quadruplex
T2 chain: YE

ER dipeptide = molecular target: T3, ER dipeptide (UniProt P00734 435-436); assay: as above; details: label: 5'-FAM; intramolecular G-quadruplex
T3 chain: ER

[8] = molecular target: T4, ERN tripeptide (thrombin loop fragment) (UniProt P00734 435-437); assay: as above; details: label: 5'-FAM; intramolecular G-quadruplex
T4 chain: ERN

[9] = molecular target: T5, YER tripeptide (thrombin loop fragment) (UniProt P00734 434-436); assay: as above; details: label: 5'-FAM; intramolecular G-quadruplex
T5 chain: YER

[10] = molecular target: T5, YER tripeptide (thrombin loop fragment); assay: MST; 100 mM KCl, 40 C; MST: 200 nM FAM-oligo; 25 mM PBS pH 7.05, 100 mM KCl (DNA TA 25 C, RNA TA 40 C) or 25 mM K-phosphate pH 7.05, 100 mM KCl (2N3M, 25 C), Hill fit; NMR: 500 uM DNA TA, 25 mM K-phosphate pH 7.4, 100 mM KCl, 10% D2O, 298 K; details: label: 5'-FAM; intramolecular G-quadruplex (modelled)
[11] = molecular target: T6, REV tripeptide (RET analogue) (UniProt P19338 604-606, T606V); assay: MST; 100 mM KCl, 25 C; MST: 200 nM FAM-oligo; 25 mM PBS pH 7.05, 100 mM KCl (DNA TA 25 C, RNA TA 40 C) or 25 mM K-phosphate pH 7.05, 100 mM KCl (2N3M, 25 C), Hill fit; NMR: 500 uM DNA TA, 25 mM K-phosphate pH 7.4, 100 mM KCl, 10% D2O, 298 K; details: label: 5'-FAM; intramolecular G-quadruplex
T6 chain: REV

[12] = molecular target: T7, RET tripeptide (nucleolin loop fragment) (UniProt P19338 604-606); assay: as above; details: label: 5'-FAM; intramolecular G-quadruplex
T7 chain: RET

[13] = molecular target: T8, QET tripeptide (RET analogue) (UniProt P19338 604-606, R604Q); assay: as above; details: label: 5'-FAM; intramolecular G-quadruplex
T8 chain: QET

`N[C@@H](CCC(=O)O)C(=O)O` was tested, and the binding [1] was “no” and the binding [2] was “no”.

In the case of `N=C(N)NCCC[C@H](NC(=O)[C@H](CCC(=O)O)NC(=O)[C@@H](N)Cc1ccc(O)cc1)C(=O)O` (H-Tyr-Glu-Arg-OH), the Kd [3] is reported as 5 ± 1 µM, the binding [4] is reported as “yes” and the Kd [5] is reported as 37 ± 9 µM.

`NC(N)=NCCC[C@H](NC(=O)[C@H](CCC(=O)O)NC(=O)[C@@H](N)Cc1ccccc1)C(=O)O` (H-Phe-Glu-Arg-OH) was tested, and the binding [2] was “no”.

In the case of `N[C@@H](Cc1ccc(O)cc1)C(=O)O`, the binding [2] is reported as “no”.

In the case of `N=C(N)NCCC[C@H](N)C(=O)N[C@@H](Cc1ccc(O)cc1)C(=O)N[C@@H](CCC(=O)O)C(=O)O` (H-Arg-Tyr-Glu-OH), the Kd [3] is reported as 52 ± 5 µM.

For `C[C@@H](O)[C@H](NC(=O)[C@H](CCC(=O)O)NC(=O)[C@@H](N)CCCNC(=N)N)C(=O)O` (H-Arg-Glu-Thr-OH), the Kd [6] was 0.1 ± 0.02 µM.

With `C[C@@H](O)[C@H](NC(=O)[C@H](CCC(=O)O)NC(=O)[C@@H](N)CCC(N)=O)C(=O)O` (H-Gln-Glu-Thr-OH) the binding [1] was “no”.

With `C[C@@H](O)[C@H](N)C(=O)O` the binding [1] was “no”.

In the case of `N[C@@H](Cc1ccc(O)cc1)C(=O)N[C@@H](CCC(=O)O)C(=O)O` (H-Tyr-Glu-OH), the binding [2] is reported as “no”.

In the case of `CC(C)[C@H](NC(=O)[C@H](CCC(=O)O)NC(=O)[C@@H](N)CCCNC(=N)N)C(=O)O` (H-Arg-Glu-Val-OH), the binding [1] is reported as “no”.

Work on `N=C(N)NCCC[C@H](NC(=O)[C@@H](N)CCC(=O)O)C(=O)N[C@@H](CC(N)=O)C(=O)O` (H-Glu-Arg-Asn-OH) yielded a Kd [3] of 12 ± 1 µM.

In the case of `N=C(N)NCCC[C@H](N)C(=O)O`, the binding [1] is reported as “no” and the binding [2] is reported as “no”.

With `NCCCC[C@H](NC(=O)[C@H](CCC(=O)O)NC(=O)[C@@H](N)Cc1ccc(O)cc1)C(=O)O` (H-Tyr-Glu-Lys-OH) the binding [2] was “no”.

With `N=C(N)NCCC[C@H](NC(=O)[C@@H](N)CCC(=O)O)C(=O)O` (H-Glu-Arg-OH) the binding [2] was “no”.

GGTTGGTGTGGTTGG (structured_DNA) [DNA TA (FAM)] was tested, and the Kd [7] was 52 ± 5 µM, the binding result (YE dipeptide) was “no binding” and the binding result (ER dipeptide) was “no binding”. It also gave a Kd [8] of 12 ± 1 µM and a Kd [9] of 5 ± 1 µM.

GGUUGGUGUGGUUGG (structured_RNA) [RNA TA (FAM)] showed a Kd [10] of 37 ± 9 µM.

For TGGTGGTGGTTGTTGTGGTGGTGGTGGT (structured_DNA) [2N3M (AS1411 derivative, FAM)], the binding result [11] was “no binding”, the Kd [12] was 0.1 ± 0.02 µM and the binding result [13] was “no binding”.
